This is an account of results in US7879792B2, “Synthetic peptide inhibitors of thrombin and thrombin activation of protease activated receptors 1 and 4” (The Regents of the University of Michigan, priority 2005, dated 2011).

Like-named read-outs stand apart in the source and are kept apart here. Where a SMILES comes first, the peptide text is derived from it.

The nature of data set [1]: stability testing in intestinal perfusate. The class given is in vitro ADME. The following applies: rat, 37° C. As to the method:
(§1) Stability testing of the various compounds was performed in buffer, intestinal perfusate, and an intestinal homogenate preparation to assess the potential oral availability of these compounds. Initial studies prepared the tissue for stability studies. The buffer used in stability testing is 10 mM MES (pH 6.5) containing 135 mM NaCl, and 5 mM KCl. To collect intestinal perfusate from rats, male Sprague Dawley rats, 8 to 10 weeks old, weighing 250 to 350 g were fasted 15 to 18 hours with water given ad libitum. Anesthesia was administered by intramuscular injection of pentobarbital/ketamine (40 mg/kg and 80 mg/kg, respectively). The rats were placed on a warming pad under a surgical lamp to maintain body temperature and jejunal intestinal segments were exposed through a midline, abdominal incision. Approximately 20 cm segment of the jejunum (2 to 4 cm distal to the ligament of Treitz) was cannulated and the intestinal segments were perfused with 10 mM MES (pH 6.5) containing 135 mM NaCl, and 5 mM KCl at a flow-rate of 0.5 ml/min at 37° C. using a constant infusion pump (Harvard Apparatus, South Natick, Mass.). The collected perfusate was stored at −80° C. until use for ex vivo stability studies. After collection, the perfused intestinal segments were flushed with ice-cold 0.15 M KCl solution and the animal was euthanized and the jejunal intestinal segment detached. The inner intestinal tissue layers are scraped out and homogenized in MES buffer (pH 6.5) in a ratio of 1 part of intestinal tissue to 5 parts buffer. Total protein content of the perfusate and the homogenate were determined using a Biorad protein assay kit. The intestinal homogenate samples were used immediately or rapidly frozen at −80° C. until stability analysis.
(§2) The actual stability testing protocol is as follows: A 0.1 ml aliquot of the synthetic peptide solution (1 mg/ml) was added to 0.9 ml of MES buffer, pH 6.5, intestinal perfusate, or intestinal homogenate at 37° C. Samples were mixed by vortexing and 100 microliter aliquots were removed over a 60 to 90 minute period for analysis of breakdown products. The 100 microliter sample aliquots were diluted 10 fold with water and subjected to solid phase extraction using a Waters Oasis HLB column. Briefly, the columns were preconditioned by passing 1 ml of MeOH and 1 ml of water over the column, and 1 ml of sample was added to the column. The column was washed with 5% methanol:95% water solution to remove proteins and salts, then eluted with 1 ml of 100% methanol. The methanol was removed by vacuum, and the sample was reconstituted in mobile phase for LC/MS/MS analysis.
(§3) LC/MS/MS analysis was performed on a HP1100 HPLC (Hewlett Packard) interfaced with a Quattro II MS/MS detector (Waters/Micromass). For the HPLC separation, a 10 μL aliquot of sample in a mobile phase consisting of an equal volume mixture of acetonitrile/water containing 0.5% formic acid was injected onto a 150 mm×2.2 mm, 5 μm C8 column (Higgins Analytical Inc) and developed at a flow rate of 0.2 ml/min for 5 minutes. The MS detector was used in single ion recording mode at a cone voltage of 50 Volts.

The nature of data set [2]: rat intestinal in situ perfusion permeability. The following applies: rat. Format: in vivo. The protocol: To determine the intestinal permeability of the various peptide analogs, male albino Sprague-Dawley rats, 9-10 weeks old and weighing 250-350 g were fasted for 18 hours with free access to water. The rats were anesthetized with an intramuscular injection of ketamine/xylazine/butorphanol (87 mg/kg, 6 mg/kg, and 0.2 mg/kg body weight, respectively). The abdomen was opened by a 4-5 cm midline incision and a 10 cm jejunal segment was cannulated on two ends and connected to a syringe pump that pumps the perfusing solution through the cannulated intestine at a constant rate and at a temperature of 37° C. The isolated segment was rinsed with 10 mM MES (pH 6.5) at a flow-rate of 0.5 ml/min in order to clean out any residual debris. Jejunal perfusion was subsequently performed with the same buffer containing 135 mM NaCl, 5 mM KCl and 0.01% PEG 4000 at a flow rate of 0.2 ml/min containing test compound, internal permeability reference standards (e.g., metoprolol) and ^14C-PEG 4000 as a non-absorbable marker for measuring water flux. After steady-state is reached within the perfused intestinal segment, typically 30 minutes after start of perfusion, samples were taken at 10 minute intervals for 1 hour. ^14C (PEG-4000) levels are assayed by scintillation counting and test compounds and internal permeability standard analysis by LC/MS/MS. Samples are frozen and stored at −80° C. until analysis.
The effective permeability (Peff) determined from the in situ perfusion is calculated from equation 1
[formula] where Q is the perfusion buffer flow rate, C′out is the outlet concentration of the compound that has been adjusted for water transport (equation 2) after passing through the intestinal segment, C′in is the inlet or starting concentration of the compound, R is the radius of the intestinal segment (set to 0.2 cm) and L is the length of the intestinal segment. To correct for water transport, a non-absorbed radioactive tracer, ^14C PEG-4000, is included in the perfusion buffer. The Cout/Cin ratio is corrected for water transport according to equation 2:
[formula] where Aout-A0 is equal to the radioactivity counts in the outlet sample minus background (dpm) and Ain-A0 is equal to the radioactivity counts in the inlet sample minus background (dpm).
In certain instances, in addition to perfusing the intestinal segment as described, plasma is drawn through a portal vein cannula to determine the amount of material entering the portal system during the perfusion. This additional experimental step can aid in determining the true intestinal permeability of unstable compounds. After steady state conditions are reached as described above, 0.5 ml aliquots of plasma are withdrawn from the portal vein at regular intervals throughout the experimental time frame. The plasma samples are deproteinated with acetonitrile and the sample is subjected to SPE and LC/MS analysis as described above. From the plasma concentration of compound, the mesenteric permeability can be determined by substitution into equation 3: Flux=A*Pe-mes*Ci 3) where Flux is equal to the portal blood flow (estimated at 1 ml/min in the rat)×the steady state mesenteric blood concentration of the peptide analogs, A is the absorptive area of the intestine (estimated at 12.56 cm^2 in the rat intestine), Pe-mes is the mesenteric Permeability (cm/sec), and Ci is the starting concentration of drug in the perfusate (ug/ml).

Data set [3] is described as follows: stability testing in MES buffer (pH 6.5). The following applies: 37° C., read-out: t1/2 (min) MES Buffer (pH 6.5). Format: physicochemical. As to the method: as §1
The actual stability testing protocol is as follows: A 0.1 ml aliquot of the synthetic peptide solution (1 mg/ml) was added to 0.9 ml of MES buffer, pH 6.5, intestinal perfusate, or intestinal homogenate at 37° C. Samples were mixed by vortexing and 100 microliter aliquots were removed over a 60 to 90 minute period for analysis of breakdown products. […]

Data set [4] is described as follows: stability testing in intestinal homogenate. Format: in vitro ADME. The note with it: rat. The protocol: as §1, §2, §3
For a further data set, the target named is human α-thrombin (Homo sapiens, UniProt P00734). The experiment in a line: inhibition of α-thrombin hydrolysis of chromogenic substrate. The class given is biochemical. The note with it: Ki (μM) + SD, αIIa (2 nM), alpha-thrombin 2 nM, Sar-Pro-Arg-paranitroanilide.

Take `C[C@@H](NC(=O)[C@@H]1CCCN1C(=O)[C@@H]1C[C@@H]2CCCC[C@@H]2N1C(=O)[C@H](N)CCCNC(=N)N)C(=O)N[C@@H](Cc1ccccc1)C(N)=O` [rOicPaF] (HELM PEPTIDE1{[dR].[O=C([C@@H]1C[C@@H]2CCCC[C@@H]2N1[*:1])[*:2]].P.[dA].F.[am]}$$$$V2.0): in data set [1], the “t1/2 (min) Intestinal Perfusate” value was “stable”. Also, the Papp in data set [2] (from portal vein plasma during perfusion, read-out: Permeability (mesenteric)) is 0.139 ×10⁻⁶ cm/s; in data set [2] (rat jejunal in situ perfusion, read-out: Permeability (in situ)) it was 6.2 ×10⁻⁶ cm/s. Further, in data set [3], the half-life was found to be 604 min. The “stability in intestinal homogenate (FIG. 12)” value in data set [4] is given as “most stable”. The “t1/2 (min) Intestinal Homogenate” value in data set [4] (37° C.) was “stable”.

Consider `Cc1ccc(C[C@H](NC(=O)[C@@H](C)NC(=O)[C@@H]2CCCN2C(=O)[C@@H]2C[C@@H]3CCCC[C@@H]3N2C(=O)[C@H](N)CCCN=C(N)N)C(N)=O)cc1` [rOicPaF(p-Me), D-Arg-Oic-Pro-D-Ala-Phe(p-Me)] (HELM PEPTIDE1{[dR].[O=C([C@@H]1C[C@@H]2CCCC[C@@H]2N1[*:1])[*:2]].P.[dA].[Cc1ccc(C[C@H](N[*:1])C(=O)[*:2])cc1].[am]}$$$$V2.0), for which the half-life at 0.1 mg/ml in data set [1] (male, Sprague Dawley, intestinal (jejunal) perfusate, pH 6.5, rat, read-out: t1/2 (min) Intestinal Perfusate) came to 314 min; in data set [3], 363 min; in data set [4] (male, Sprague Dawley, intestinal (jejunal) homogenate, pH 6.5, 37° C., read-out: t1/2 (min) Intestinal Homogenate), 757 min. The Papp in data set [2] (male, Sprague-Dawley, other: in situ jejunal perfusion, pH 6.5, from portal vein plasma during perfusion, read-out: Permeability (mesenteric)) turned out to be 0.309 ×10⁻⁶ cm/s; in data set [2] (male, Sprague-Dawley, other: in situ jejunal perfusion, pH 6.5, rat jejunal in situ perfusion, read-out: Permeability (in situ)) it was 1 ×10⁻⁶ cm/s. Further, the Ki on human α-thrombin lay in the range of 6.4 to 10.6 µM. Moreover, the “stability in intestinal homogenate (FIG. 12)” value in data set [4] is “most stable”.

In general, Ki refers to the dissociation constant of the complex between target and ligand, obtained from inhibition or displacement.
